Reference: patent publication US20130344026A1, “Dimeric Smac Mimetics” (priority 2009, published 2013)

Tested on: HCC461
Assay: cell viability assay in HCC461, compound alone
Format: cell-based
Details: HCC461, HCC461 cells, compound alone; read-out: IC50 (uM) in cell viability assay in HCC461

CN[C@@H](C)C(=O)N[C@H](C(=O)N1C[C@@H](NC(=O)CNCC(=O)N[C@H]2C[C@@H](C(=O)N[C@@H]3CCCc4ccccc43)N(C(=O)[C@@H](NC(=O)[C@H](C)NC)C(C)(C)C)C2)C[C@H]1C(=O)N[C@@H]1CCCc2ccccc21)C(C)(C)C [Compound P3-35]
IC50: 0.048 µM

CN[C@@H](C)C(=O)N[C@H](C(=O)N1C[C@@H](NC(=O)c2cccc(C(=O)N[C@H]3C[C@@H](C(=O)Nc4cccc5c4CCCC5)N(C(=O)[C@@H](NC(=O)[C@H](C)NC)C(C)(C)C)C3)c2)C[C@H]1C(=O)Nc1cccc2c1CCCC2)C(C)(C)C [Compound P3-45]
IC50: 0.181 µM
